Target: T1, thrombin (Homo sapiens, UniProt P00734)
T1 construct: purchased Sigma
Assay: WaterLOGSY NMR screen of the functional genomics library against thrombin
Format: binding
Details: 133 μM compound, 7 μM thrombin, 100 mM phosphate buffer, pH6.5
Experimental: Several proteins with known functions were used for validating the screening library. The proteins were dissolved in 100 mM phosphate buffer, pH 6.5 to make stock solutions which were further diluted and mixed with the compound mixtures to make final concentration of 5-7 μM. The concentration of compounds was about 133 μM in the final solution. The ratio of compound to protein concentrations was about 20:1.
NMR experiments for validating the functional genomics library with proteins of known functions were conducted on a Bruker Avance 600 MHz spectrometer equipped with 5 mm FISEI flow probe and Gilson 215 liquid sample handler. Binding was detected using the WaterLOGSY experiment.
The functional genomics screening library was screened against thrombin obtained from Sigma, which is one of the test proteins used for validation of the library. One assay mixture contained 133 μM of N-alpha-dansyl-DL-tryptophan cyclohexylammonium salt (DPS) and 7 μM of thrombin in 100 mM phosphate buffer, pH6.5. This mixture also contained Benzyl (S)-(−)-2-(1-pyrrolidinylcarbonyl)-1-pyrrolidinecarboxylate (ZPR), Chymostatin A (CSA), Tetrahydrofolic acid (C2F), Haloperidol (THK). Referring to FIG. 17, the reference NMR spectrum of DPS is in the top panel while the WaterLOGSY spectrum of the mixture is shown in the bottom panel. The positive peak in the WaterLOGSY spectrum indicates binding of DPS to thrombin. […]

binding to thrombin (positive peak in WaterLOGSY spectrum): binding
Structure (SMILES): CN(C)c1cccc2c(S(=O)(=O)NC(Cc3c[nH]c4ccccc34)C(=O)O)cccc12.NC1CCCCC1 (racemic) [DPS, N-alpha-dansyl-DL-tryptophan cyclohexylammonium salt]
